Measured values as given in patent publication US20250333482A1, “MODULATORS OF MESOTHELIAL ECM MOVEMENT” (Helmholtz Zentrum München Deutsches Forschungszentrum Für …, priority 2021, published 2025).

Tests used:
TGFβ signaling = assay: Ex vivo mouse lung biopsies treated with granulocytes, then TGFβ inhibitors; format: cell-based; conditions: for matrix invasion: in the presence of granulocytes; for phosphorylated SMAD (pSMAD): mouse lung biopsies treated with granulocytes
Protocol: (§1) C57BL/6J male mice (6-8 weeks age) used to study the movement of lung matrix. After organ withdrawal 4 mm biopsy punches of murine lungs were generated. To obtain ectopic labeling of matrix, the inventors generated a labelling solution by mixing NHS-ester 1:1 with 100 mM pH 9.0 sodium bicarbonate buffer. Sterile Whatman filter paper (Sigma Aldrich) biopsy punches where soaked in NHS-labelling solution, and locally placed on the lung biopsy surface. After one minute, the labelling punch was removed. Mouse lung biopsies were cocultured in the RPMI medium (10% FBS with 1% Pen/Strep and 0.1% AmB) consist of different sub types of immune cells (0.1×10^6 cells/biopsy) isolated from the healthy and idiopathic pulmonary fibrosis human donors. Mouse lung biopsies with immune cells were then cultured in the ex vivo condition provided with 5% C02 at 37° C.
(§2) After 48 hours, mouse lung biopsies were fixed with the 4% formalin and incubated for overnight at 4° C. followed by PBS wash. Human lung tissues where obtained, labelled, and cultivated for 24 hours as described above.
(§3) Matrix invasion was calculated using histological sections, quantifying FITC signal per area via ImageJ (1.52i). Quantification of immunolabeling was performed in randomly distributed ROIs/FOVs. Multiphoton images were analyzed using Fiji plugins Fraklac V. 2.5 and LocalThickness_V-4.0.2.
The inventors sought to characterize the signaling pathways by which immune cells trigger matrix invasion and fibrosis and we naturally sought to investigate the known chief proponent, TGFβ. They wondered whether the fibrotic cascade of immune cells might start with mesothelial TGFβ expression. Mouse lung biopsies were treated with granulocytes, followed by administering two TGFβ inhibitors, Repsox and LDN-212854, in separate experiments (FIG. 2A). Inhibition of TGFβ signaling in both chemical assays decreased phosphorylated SMAD (pSMAD), which is the major mediator of TGFβ-induced signaling. Furthermore, inhibiting TGFβ reduced matrix invasion, even in the presence of granulocytes. Moreover, adding granulocytes alone led to increased phosphorylated SMAD signaling in mesothelium. These findings indicate granulocytes trigger TGFβ expression in mesothelium to initiate matrix accumulation and irrigation.

C57BL/6J mice = assay: Pharmacologic treatment regime in the bleomycin-induced lung fibrosis model; format: in vivo, mouse; conditions: for pleural matrix pools: after bleomycin-induced injury
Protocol: The inventors generated a labelling solution by mixing 5 μl NHS-ester (25 mg/ml) with 5 μl of 100 mM pH 9.0 sodium bicarbonate buffer, combining with 40 μl PBS to a total volume of 50 μl. Labelling solution was applied intrapleurally (for lung and/or heart fibrosis model) under isoflurane anesthesia with a 30 G cannula. Abdominal labeling was performed by injecting 100 μl of labelling solution intra-peritoneal (for liver and/or kidney fibrosis model).
The oropharyngeal administration of bleomycin for the induction of pulmonary fibrosis is carried out in an antagonistic anesthesia in C57BL/6J mice of both sexes (6-8 weeks age). After the toe-pinch reflex is absent, the mouse is placed on the incisors of the upper jaw and thus kept in an upright position. The tongue is carefully fixed with is held to the side with tweezers and the nose of the animal is covered with tweezers. By keeping the nose closed, the mouse is forced to breathe through the mouth. With the help of a pipette, bleomycin is dissolved in a dosage of 2 units/kg KGW in 80 μl PBS carefully into the throat. As soon as the animal has inhaled the solution, it will be
Hot plate transferred (duration approx. 30 to 60 seconds). After antagonization animals were housed for 14 days. Nintedanib was added 1 hour before bleomycin installation and every other day intra peritoneal 10 μM.
Pirfenidone (0.07 mg/kg), Nintedanib (0.21 mg/kg) and Cathepsin Inhibitor B (0.15 mg/kg) were injected 1 hour before bleomycin installation and every other day intra peritoneal in a volume of 100 μl in physiological saline solution.
as §3

[1] = test system: fibrotic human lung tissue; assay: Ex vivo matrix flow in fibrotic human lung tissue; format: cell-based
Protocol: All tissues (PFA, ST) used in this study were obtained with properly informed consent of patients. All experimental procedures were performed in accordance with the Ethics committee vote number/Study protocol number: 333-10 Parent Proposal number: BA34/2018.
as §1, §2

[2] = bleomycin, intra peritoneal 1 hour before and every other day

SMILES	matrix invasion (TGFβ signaling)	phosphorylated SMAD (pSMAD) (TGFβ signaling)	pleural matrix pools (C57BL/6J mice)	bleomycin-induced mortality (C57BL/6J mice; [2])	matrix invasion into lungs (matrix movements) (C57BL/6J mice; [2])	survival rates of lung injured animals (C57BL/6J mice; [2])	fibrosis development (C57BL/6J mice; [2])	bleomycin-induced mortality (C57BL/6J mice; bleomycin, intra peritoneal 1 hour before and every other day, listed as Cathepsin B inhibitor)	fluid matrix flows [1]
c1cc(-c2cnn3cc(-c4ccc(N5CCNCC5)cc4)cnc23)c2cccnc2c1 [LDN-212854]	reduced	decreased	–	–	–	–	–	–	–
COC(=O)c1ccc2c(c1)NC(=O)/C2=C(\Nc1ccc(N(C)C(=O)CN2CCN(C)CC2)cc1)c1ccccc1 [Nintedanib]	–	–	rescue	prevent	inhibiting matrix movements	comparable	–	–	–
Cc1ccc(=O)n(-c2ccccc2)c1 [Pirfenidone]	–	–	rescue	prevent	inhibiting matrix movements	comparable	–	–	–
Cc1cccc(-c2[nH]ncc2-c2ccc3ncccc3n2)n1 [Repsox]	reduced	decreased	–	–	–	–	–	–	–
CC(NC(=O)[C@H](Cc1ccccc1)NC(=O)OCc1ccccc1)C(=O)CF (stereo partly shown) [Z-FA-FMK]	–	–	rescue	abrogated	completely prevented	100%	completely prevented	prevent	blocks
